Results on 24 compounds are retold here after patent US9776962B2, “Aromatic compounds with GPR40 agonistic activity” (TAKEDA PHARMACEUTICAL COMPANY LIMITED, priority 2013, dated 2017).

Structures are written as SMILES.

This test deals with T1, human GPR40 (Homo sapiens, UniProt O14842).
T1 construct: expressed in transfected cells
T1 sequence (O14842 whole entry): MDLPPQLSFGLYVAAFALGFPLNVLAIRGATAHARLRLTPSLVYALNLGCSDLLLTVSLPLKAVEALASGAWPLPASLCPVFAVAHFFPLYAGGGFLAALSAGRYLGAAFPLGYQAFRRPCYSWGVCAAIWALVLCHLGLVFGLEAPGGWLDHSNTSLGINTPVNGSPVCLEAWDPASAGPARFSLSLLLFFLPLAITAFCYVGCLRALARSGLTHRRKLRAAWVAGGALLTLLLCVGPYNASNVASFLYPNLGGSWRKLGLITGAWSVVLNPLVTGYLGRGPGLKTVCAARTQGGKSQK
As to the kind of experiment: Evaluation of human GPR40 agonist activity with increase in intracellular Ca2+ concentration as an index (FLIPR). The following applies: test compound 1 μM; CHO(dhfr−) cells stably expressing human GPR40; 100% = 10 μM compound of Example 153, 0% = DMSO. Format: cell-based. The gist of the method: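 CHO(dhfr−) cells stably expressing full-length human GPR40 were loaded with Ca2+ probe for 1 h at room temperature, then given test compound at 1 μM final. Fluorescence was followed on FLIPR, with activity scaled to a reference agonist at 10 μM (100%) and DMSO (0%).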
Regarding `COc1cc(N2CCC(COc3cc(C(CC(=O)O)C4CC4)ccn3)CC2)c(C(=O)N(CC(C)(C)C)c2cccc(C)n2)cc1F` (stereo not drawn) [Example 250, 3-cyclopropyl-3-(2-((1-(2-((2,2-dimethylpropyl)(6-methylpyridin-2-yl)carbamoyl)-4-fluoro-5-methoxyphenyl)piperidin-4-yl)methoxy)pyridin-4-yl)propanoic acid], the activation at 1 µM was 91%.

As for `COc1cc(F)c(C(=O)N(CC(C)(C)C)c2cccc(C)n2)c(N2CCC(COc3cc(C(CC(=O)O)C4CC4)ccn3)CC2)c1` (stereo not drawn) [Example 251, 3-cyclopropyl-3-(2-((1-(2-((2,2-dimethylpropyl)(6-methylpyridin-2-yl)carbamoyl)-3-fluoro-5-methoxyphenyl)piperidin-4-yl)methoxy)pyridin-4-yl)propanoic acid], the activation at 1 µM is 91%.

Turning to `COc1ccc(C(=O)N(CC(C)(C)C)c2cccc(C)n2)c(N2CCC(COc3cc(C(CC(=O)O)C4CC4)ccn3)CC2)c1F` (stereo not drawn) [Example 252, 3-cyclopropyl-3-(2-((1-(6-((2,2-dimethylpropyl)(6-methylpyridin-2-yl)carbamoyl)-2-fluoro-3-methoxyphenyl)piperidin-4-yl)methoxy)pyridin-4-yl)propanoic acid], the activation at 1 µM amounted to 87%.

Turning to `COc1c(F)cc(C(=O)N(CC(C)(C)C)c2cccc(C)n2)c(N2CCC(COc3cc(C(CC(=O)O)C4CC4)ccn3)CC2)c1F` (stereo not drawn) [Example 253, 3-cyclopropyl-3-(2-((1-(6-((2,2-dimethylpropyl)(6-methylpyridin-2-yl)carbamoyl)-2,4-difluoro-3-methoxyphenyl)piperidin-4-yl)methoxy)pyridin-4-yl)propanoic acid], the activation at 1 µM came out at 74%.

Regarding `COc1ccc(C(=O)N(CC(C)(C)C)c2ccccn2)c(N2CCC(COc3cccc(C(CC(=O)O)C4CC4)c3)CC2)n1` (stereo not drawn) [Example 254, 3-cyclopropyl-3-(3-((1-(3-((2,2-dimethylpropyl)(pyridin-2-yl)carbamoyl)-6-methoxypyridin-2-yl)piperidin-4-yl)methoxy)phenyl)propanoic acid], the activation at 1 µM was found to be 74%.

In the case of `COc1cc(N2CCC(COc3cc(C(CC(=O)O)C4CC4)ccn3)CC2)c(C(=O)N(CC(C)(C)C)c2cccc(C)n2)cn1` (stereo not drawn) [Example 255, 3-cyclopropyl-3-(2-((1-(5-((2,2-dimethylpropyl)(6-methylpyridin-2-yl)carbamoyl)-2-methoxypyridin-4-yl)piperidin-4-yl)methoxy)pyridin-4-yl)propanoic acid], the activation at 1 µM came out at 103%.

For `COc1cc(N2CCC(COc3cc(C(CC(=O)O)C4CC4)ccn3)CC2)c(C(=O)N(CC(F)(F)F)c2ccccn2)cn1` (stereo not drawn) [Example 256, 3-cyclopropyl-3-(2-((1-(2-methoxy-5-(pyridin-2-yl(2,2,2-trifluoroethyl)carbamoyl)pyridin-4-yl)piperidin-4-yl)methoxy)pyridin-4-yl)propanoic acid], the activation at 1 µM came out at 96%.

`COc1cc(N2CCC(COc3cc(C(CC(=O)O)C4CC4)ccn3)CC2)c(C(=O)N(CC(C)(C)C)c2cc(C)ncn2)cn1` (stereo not drawn) [Example 257, 3-cyclopropyl-3-(2-((1-(5-((2,2-dimethylpropyl)(6-methylpyrimidin-4-yl)carbamoyl)-2-methoxypyridin-4-yl)piperidin-4-yl)methoxy)pyridin-4-yl)propanoic acid] yielded an activation at 1 µM of 98%.

`Cc1ccc(C(=O)N(CC(C)(C)C)c2cccc(C)n2)c(N2CCC(COc3cc(C(CC(=O)O)C4CC4)ccn3)CC2)c1` (stereo not drawn) [Example 258, 3-cyclopropyl-3-(2-((1-(2-((2,2-dimethylpropyl)(6-methylpyridin-2-yl)carbamoyl)-5-methylphenyl)piperidin-4-yl)methoxy)pyridin-4-yl)propanoic acid] had an activation at 1 µM of 94%.

Regarding `Cc1cccc(N(CC(C)(C)C)C(=O)c2ccc(O)cc2N2CCC(COc3cc(C(CC(=O)O)C4CC4)ccn3)CC2)n1` (stereo not drawn) [Example 259, 3-cyclopropyl-3-(2-((1-(2-((2,2-dimethylpropyl)(6-methylpyridin-2-yl)carbamoyl)-5-hydroxyphenyl)piperidin-4-yl)methoxy)pyridin-4-yl)propanoic acid], the activation at 1 µM turned out to be 77%.

On to `Cc1cccc(N(CC(C)(C)C)C(=O)c2ccc(C#N)cc2N2CCC(COc3cc(C(CC(=O)O)C4CC4)ccn3)CC2)n1` (stereo not drawn) [Example 260, 3-(2-((1-(5-cyano-2-((2,2-dimethylpropyl)(6-methylpyridin-2-yl)carbamoyl)phenyl)piperidin-4-yl)methoxy)pyridin-4-yl)-3-cyclopropylpropanoic acid], for which the activation at 1 µM worked out at 89%.

For the compound `Cc1cccc(N(CC(C)(C)C)C(=O)c2ccc(C(N)=O)cc2N2CCC(COc3cc(C(CC(=O)O)C4CC4)ccn3)CC2)n1` (stereo not drawn) [Example 261, 3-(2-((1-(5-carbamoyl-2-((2,2-dimethylpropyl)(6-methylpyridin-2-yl)carbamoyl)phenyl)piperidin-4-yl)methoxy)pyridin-4-yl)-3-cyclopropylpropanoic acid], the activation at 1 µM turned out to be 11%.

Compound `CSc1ccc(C(=O)N(CC(C)(C)C)c2cccc(C)n2)c(N2CCC(COc3cc(C(CC(=O)O)C4CC4)ccn3)CC2)c1` (stereo not drawn) [Example 262, 3-cyclopropyl-3-(2-((1-(2-((2,2-dimethylpropyl)(6-methylpyridin-2-yl)carbamoyl)-5-(methylsulfanyl)phenyl)piperidin-4-yl)methoxy)pyridin-4-yl)propanoic acid] registered an activation at 1 µM of 90%.

The compound `Cc1cccc(N(CC(C)(C)C)C(=O)c2ccc(Br)cc2N2CCC(COc3cc(C(CC(=O)O)C4CC4)ccn3)CC2)n1` (stereo not drawn) [Example 263, 3-(2-((1-(5-bromo-2-((2,2-dimethylpropyl)(6-methylpyridin-2-yl)carbamoyl)phenyl)piperidin-4-yl)methoxy)pyridin-4-yl)-3-cyclopropylpropanoic acid] displayed an activation at 1 µM of 94%.

`Cc1cccc(N(CC(C)(C)C)C(=O)c2ccc(S(C)(=O)=O)cc2N2CCC(COc3cc(C(CC(=O)O)C4CC4)ccn3)CC2)n1` (stereo not drawn) [Example 264, 3-cyclopropyl-3-(2-((1-(2-((2,2-dimethylpropyl)(6-methylpyridin-2-yl)carbamoyl)-5-(methylsulfonyl)phenyl)piperidin-4-yl)methoxy)pyridin-4-yl)propanoic acid] displayed an activation at 1 µM of 52%.

Turning to `Cc1cccc(N(CC(C)(C)C)C(=O)c2c(F)cc(Cl)cc2N2CCC(COc3cc(C(CC(=O)O)C4CC4)ccn3)CC2)n1` (stereo not drawn) [Example 265, 3-(2-((1-(5-chloro-2-((2,2-dimethylpropyl)(6-methylpyridin-2-yl)carbamoyl)-3-fluorophenyl)piperidin-4-yl)methoxy)pyridin-4-yl)-3-cyclopropylpropanoic acid], the activation at 1 µM was 85%.

With `Cc1cccc(N(CC(C)(C)C)C(=O)c2ccc(Cl)cc2N2CCC(COc3cc(C(CC(=O)O)C4CC4)ccn3)CC2)n1` (stereo not drawn) [Example 266, 3-(2-((1-(5-chloro-2-((2,2-dimethylpropyl)(6-methylpyridin-2-yl)carbamoyl)phenyl)piperidin-4-yl)methoxy)pyridin-4-yl)-3-cyclopropylpropanoic acid], the activation at 1 µM is 94%.

`Cc1cccc(N(CC(C)(C)C)C(=O)c2ccc(OC(F)F)cc2N2CCC(COc3cc(C(CC(=O)O)C4CC4)ccn3)CC2)n1` (stereo not drawn) [Example 267, 3-cyclopropyl-3-(2-((1-(5-(difluoromethoxy)-2-((2,2-dimethylpropyl)(6-methylpyridin-2-yl)carbamoyl)phenyl)piperidin-4-yl)methoxy)pyridin-4-yl)propanoic acid] came in with an activation at 1 µM of 96%.

For `COc1ccc(C(=O)N(CC(C)(C)C)c2cccc(C)n2)c(N2CCC(C(C)Oc3cc(C(CC(=O)O)C4CC4)ccn3)CC2)c1` (stereo not drawn) [Example 268, 3-cyclopropyl-3-(2-(1-(1-(2-((2,2-dimethylpropyl)(6-methylpyridin-2-yl)carbamoyl)-5-methoxyphenyl)piperidin-4-yl)ethoxy)pyridin-4-yl)propanoic acid], the activation at 1 µM is 92%.

Consider `COc1ccc(C(=O)N(CC(C)(C)C)c2cccc(C)n2)c(N2CCC(COc3cccc(C(CC(=O)O)OC)c3)CC2)c1` (stereo not drawn) [Example 269, 3-(3-((1-(2-((2,2-dimethylpropyl)(6-methylpyridin-2-yl)carbamoyl)-5-methoxyphenyl)piperidin-4-yl)methoxy)phenyl)-3-methoxypropanoic acid], for which the activation at 1 µM was 103%.

In turn, `CCOC(CC(=O)O)c1cccc(OCC2CCN(c3cc(OC)ccc3C(=O)N(CC(C)(C)C)c3cccc(C)n3)CC2)c1` (stereo not drawn) [Example 270, 3-(3-((1-(2-((2,2-dimethylpropyl)(6-methylpyridin-2-yl)carbamoyl)-5-methoxyphenyl)piperidin-4-yl)methoxy)phenyl)-3-ethoxypropanoic acid] yielded an activation at 1 µM of 95%.

Turning to `COc1ccc(C(=O)N(CC(F)(F)F)c2cc(C)ccn2)c(N2CCC(COc3cc(C(CC(=O)O)OC)ccn3)CC2)c1` (stereo not drawn) [Example 271, 3-methoxy-3-(2-((1-(5-methoxy-2-((4-methylpyridin-2-yl)(2,2,2-trifluoroethyl)carbamoyl)phenyl)piperidin-4-yl)methoxy)pyridin-4-yl)propanoic acid], the activation at 1 µM was 98%.

Compound `CCOC(CC(=O)O)c1ccnc(OCC2CCN(c3cc(OC)ccc3C(=O)N(CC(C)(C)C)c3cccc(C)n3)CC2)c1` (stereo not drawn) [Example 272, 3-(2-((1-(2-((2,2-dimethylpropyl)(6-methylpyridin-2-yl)carbamoyl)-5-methoxyphenyl)piperidin-4-yl)methoxy)pyridin-4-yl)-3-ethoxypropanoic acid] gave an activation at 1 µM of 95%.

Regarding `COc1ccc(C(=O)N(CC(C)(C)C)c2ncccn2)c(N2CCC(COc3cc(C(CC(=O)O)C4CC4)c(F)cn3)CC2)c1` (stereo not drawn) [Example 273, 3-cyclopropyl-3-(2-((1-(2-((2-dimethylpropyl)-(pyrimidin-2-yl)-carbamoyl)-5-methoxy-phenyl)piperidin-4-yl)-methoxy)-5-fluoropyridin-4-yl)propanoic acid], the activation at 1 µM was 101%.
